In patent US20240130999A1, “Inhibition of SLC4A4 in the Treatment of Cancer” (VIB VZW, priority 2021, published 2024):

What was measured:
KPC orthotopic tumors [1] = test: FACS analysis of immune infiltrate in orthotopic KPC tumors of DIDS-treated mice; type: in vivo, mouse; conditions: WT KPC orthotopic tumors, DIDS vs DMSO, flow cytometry
Protocol: (§1) C57BL6/N were injected subcutaneously in the right flank with 1*10^6 Panc02 cells (pancreatic cancer cell line), 2*10^6 KP cells (lung cancer cell line), 0.8*10^6 KR158B cells (glioblastoma cell line), or 5*106 CMT-93 cells (colorectal cancer cell line) in 200 μl. Tumor growth was monitored by measuring the perpendicular diameters of tumors every other day and mice were sacrificed at a humane endpoint. FVB mice were injected orthotopically in the head of the pancreas with 10′000 KPC cells in 20 μl. Body weight was monitored and mice were sacrificed at a humane endpoint. Alternatively, FVB mice were injected subcutaneously in the right flank with 0,5*10^6 KPC cells in 200 μl. Tumor growth was monitored by measuring the perpendicular diameters of tumors every other day and mice were sacrificed at a humane endpoint. For immunotherapy treatment the mice were treated intraperitoneally (i.p.) with 10 mg/kg of either control IgG, anti-PD-1 (αPD-1), anti-PDL1 (αPDL1), or anti-CTLA-4 (αCTLA-4) antibodies (3×/week). For CD8 depletion mice were injected i.p. with an anti-CD8 antibody (10 mg/kg) 3 days before tumor inoculation and then 1 time per week. For in vivo slc4a4 inhibition, mice were treated with 15 mg/kg of 4,4′-Diisothiocyano-2,2′-stilbenedisulfonic acid (DIDS) i.p. bi-daily for a period of 10 days. Antibodies: Rat serum IgG (14131) (Sigma-Aldrich); Ultra-LEAF™ Purified PD-1anti-mouse (CD279) RMP1-14 (BioLegend); InVivoMAb anti-mouse CTLA-4 (CD152) (BioCell); InVivoMAb anti-mouse CD8α (BioCell); InVivoMab anti-mouse PD-L1 (B7-H1) (BioCell).
Mice were sacrifice by cervical dislocation and the tumor were harvested in cold PBS. Tumors were minced in alpha MEM (Lonza) containing 0,085 mg/ml Collagenase V (Sigma), 0,125 mg/ml Collagenase D (Roche) and 0,1 mg/ml Dispase (Gibco), and incubated in the same solution for 30 minutes at 37° C. The digested tissues were filtered using a 70-μm pore sized strainer and cells were centrifuged 5 minutes at 300 xg. Red blood cell lysis was performed by using a home-made red blood cell lysis buffer (150 mM NH4Cl, 0.1 mM EDTA, 10 mM KHCO3, pH 7.4. Single cells were resuspended in FACS buffer (PBS containing 2% FBS and 2 mM EDTA) and incubated for 15 minutes with Mouse BD Fc Block purified anti-mouse CD16/CD32 mAb (BD-Pharmingen) and stained for 30 minutes at 4° C. with the following antibodies: Fixable viability dye (eFluor™ 450 or eFluor™ 506, 1:500),CD45 (PE, 1:200), TCRβ (FITC, 1:300), CD4 (PercPcy5.5, 1:400), CD8 (APC-cy7, 1:300), IFNγ (PE-cy7, 1:100), Foxp3 (APC, 1:100), TBet1 (BV421, 1:50)-from BD Biosciences. Cells were subsequently washed and resuspended in FACS buffer before FACS analysis by a FACS Canto II (BD Biosciences). Data was analyzed by Flowio (TreeStar).

KPC orthotopic tumors [2] = test: DIDS treatment of mice bearing orthotopic KPC tumors (tumor growth, tumor weight); type: in vivo, mouse; conditions: 15 mg/kg DIDS i.p. bi-daily for 10 days
Protocol: as §1, with “Antibodies: Rat serum IgG (14131) (Sigma-Aldrich); Ultra-LEAF™ Purified PD-1anti-mouse (CD279) RMP1-14 (BioLegend); InVivoMAb anti-mouse CTLA-4 (CD152) (BioCell); InVivoMAb anti-mouse CD8α (BioCell); InVivoMab anti-mouse PD-L1 (B7-H1) (BioCell).” left out

SMILES: O=S(=O)(O)c1cc(N=C=S)ccc1C=Cc1ccc(N=C=S)cc1S(=O)(=O)O [DIDS, 4,4′-diisothiocyano-2,2′-stilbenedisulfonic acid]
- CD8+ T cells infiltration (KPC orthotopic tumors [1]): increase
- CD8+/CD4+ T cell ratio (KPC orthotopic tumors [1]): increase
- IFNγ expression of CD8+ T cells (KPC orthotopic tumors [1]): increase
- number of CD4+ T cells (KPC orthotopic tumors [1]): no differences
- number of Treg (KPC orthotopic tumors [1]): no differences
- tumor reduction upon treatment (KPC orthotopic tumors [2]; Slc4a4-KD orthotopic KPC tumors): no differences in tumor reduction
- tumor growth (KPC orthotopic tumors [2]; wild-type (control, NT) orthotopic KPC tumors): reduction in tumor growth
